# Source: patent US20240166636A1, “CRYSTALLINE COMPOUNDS AND METHODS OF MAKING THE SAME” (Epizyme, Inc., priority 2019, published 2024)
# Assays:
# Type in all cases: physicochemical
# [1] = Hygroscopicity (dynamic vapor sorption); conditions: compared to other salt forms of Compound I
# Protocol: Dynamic Vapor Sorption (DVS) was measured on a VTI Model SGA-100 system. Measurement method: The relative humidity (RH) was changed in a controlled fashion, in 5% steps from 5.0% to 95.0% then back to 5.0% using the gravimetric vapor sorption system, and the weight percentage change (wt. %) of the sample at each stage was measured.
# [2] = Intrinsic dissolution rate of polymorphs
# [3] = Competitive slurry experiments, thermodynamically most stable form; conditions: 50/50% (w/w) mixture of Polymorph A and Polymorph B, slurried for several days, varying water content and temperature
# Protocol: Several slurries were prepared, varying the water content and the temperature. […] As a result, the isolation temperature (e.g. in step b-2) was increased (e.g., from 15° C. to 22° C.) and the water content of the solvent system during the cooling crystallization was reduced (e.g., from 9.7% (v/v) to 9.0% (v/v)).
SMILES,hygroscopicity [1],Intrinsic Dissolution Rate (IDR) [2] [mg/min/cm^2],% Rate relative to From A ([2]; IDR relative to Polymorph A) [%],thermodynamically most stable form as a function of temperature and water content in the solvent [3]
"Br.CCN(c1cc(-c2ccc(CN3CCOCC3)cc2)cc(C(=O)NCc2c(C)cc(C)[nH]c2=O)c1C)C1CCOCC1 [Compound I hydrobromide, N-((4,6-dimethyl-2-oxo-1,2-dihydropyridin-3-yl)methyl)-5-(ethyl (tetrahydro-2H-pyran-4-yl)amino)-4-methyl-4′-(morpholinomethyl)-[1,1′-biphenyl]-3-carboxamide hydrobromide]",low hygroscopicity,,,
CN(C)CCc1c[nH]c2cccc(OP(=O)(O)O)c12 [Polymorph A],,7.6,100,stable form at higher temperatures and lower water content
